The results in this text go back to US20060223743A1, “Metabolites of cyclosporin analogs” (priority 2004, published 2006).

The subject of this experiment is calcineurin. Briefly: Calcineurin activity assay in whole blood lysates (dephosphorylation of 32P-labelled 19 amino acid peptide substrate). Conditions: in the presence of okadaic acid. The experiment is classed as biochemical. The procedure:
Calcineurin activity was assayed using a modification of the method previously described by Fruman et al. (A Proc Natl Acad Sci USA, 1992) and in U.S. Pat. No. 6,605,593. Whole blood lysates are evaluated for their ability to dephosphorylate a ^32P-labelled 19 amino acid peptide substrate in the presence of okadaic acid, a phosphatase-type 1 and 2 inhibitor. Background phosphatase 2C activity (CsA and okadaic acid resistant activity) is determined and subtracted from each sample, with the assay performed in the presence and absence of excess added ISA247. The remaining phosphatase activity is taken as calcineurin activity.

Consider `C=C/C=C/C[C@@H](C)[C@@H](O)[C@H]1C(=O)N[C@@H](CC)C(=O)N(C)CC(=O)N(C)[C@@H](CC(C)C)C(=O)N[C@@H](C(C)C)C(=O)N(C)[C@@H](CC(C)C)C(=O)N[C@@H](C)C(=O)N[C@H](C)C(=O)N(C)[C@@H](CC(C)C)C(=O)N(C)[C@@H](CC(C)C)C(=O)N(C)[C@@H](C(C)C)C(=O)N1C` [Trans ISA247], for which the “Metabolite EC50” value (calcineurin inhibition) is 0.208 µg/mL. Also, the “Metabolite Emax” value (percent calcineurin inhibition) is 107%.
